In ChEMBL document CHEMBL4651402, “Screening of ~5500 FDA-approved drugs and clinical candidates for anti-SARS-CoV-2 activity” (2021):

System: SARS-CoV-2
Assay: microbe, parasite or virus in culture
Settings: Severe acute respiratory syndrome coronavirus 2, Vero C1008, 48 h

SMILES	IC50	IC50 (read-out: pIC50 (converted))
O=C(O)C[C@H](O)C[C@H](O)/C=C/c1c(C2CC2)nc2ccccc2c1-c1ccc(F)cc1 [PITAVASTATIN]	> 50.1 µM	> 50.1 µM
Cc1cnc(Nc2ccc(OCCN3CCCC3)cc2)nc1Nc1cccc(S(=O)(=O)NC(C)(C)C)c1 [FEDRATINIB]	> 20 µM	> 20 µM
Cc1ccc(-c2cc(C(F)(F)F)nn2-c2ccc(S(N)(=O)=O)cc2)cc1 [CELECOXIB]	> 20 µM	> 20 µM
O=C(O)c1ccccc1 [BENZOIC ACID]	> 20 µM	> 20 µM
CC1(COc2ccc(CC3SC(=O)NC3=O)cc2)CCCCC1 (centres undefined) [CIGLITAZONE]	> 20 µM	> 20 µM
CCCCCCOc1nsnc1C1=CCCN(C)C1 [XANOMELINE]	> 20 µM	> 20 µM
CC(=O)O[C@H]1CC[C@@]2(C)[C@H](CC[C@@H]3[C@@H]2CC[C@]2(C)C(=O)CC[C@@H]32)C1	> 20 µM	> 20 µM
COCCCOc1ccnc(C[S+]([O-])c2nc3ccccc3[nH]2)c1C (centres undefined) [RABEPRAZOLE]	> 20 µM	> 20 µM
c1cnc2c(c1)C[C@@]1(CN3CCC1CC3)O2 [AZD0328]	> 20 µM	> 20 µM
C[C@H]1CN([C@H]2CC[C@](C#N)(c3ccc(F)cc3)CC2)CC[C@]1(C(=O)O)c1ccccc1	> 20 µM	> 20 µM
CNC(C)CC1CCCC1 (centres undefined) [CYCLOPENTAMINE]	> 20 µM	> 20 µM
CC(C)(O/N=C(\C(=O)N[C@@H]1C(=O)N2C(C(=O)[O-])=C(C[n+]3ccccc3)CS[C@H]12)c1csc(N)n1)C(=O)O [CEFTAZIDIME]	> 20 µM	> 20 µM
COc1cc(Cc2cnc(N)nc2N)cc(OC)c1SC [METIOPRIM]	> 20 µM	> 20 µM
NC(=O)OCC(O)c1ccccc1 (centres undefined) [STYRAMATE]	> 20 µM	> 20 µM
C[C@]12CC[C@@H]3c4ccc(O)cc4C[C@@H](CCCCCCCCC[S+]([O-])CCCC(F)(F)C(F)(F)F)[C@H]3[C@@H]1CC[C@@H]2O (some centres undefined) [FULVESTRANT]	> 20 µM	> 20 µM
CC(C)NC(=N)NC(=N)Nc1ccc(Cl)cc1 [PROGUANIL]	> 20 µM	> 20 µM
O=C(Nc1nc2cccc(-c3ccc(CN4CCS(=O)(=O)CC4)cc3)n2n1)C1CC1 [FILGOTINIB]	> 20 µM	> 20 µM
CC1(C)OC2CC3C4CC(F)C5=CC(=O)C=CC5(C)C4(Cl)C(Cl)CC3(C)C2(C(=O)CCl)O1 (centres undefined)	> 20 µM	> 20 µM
COc1nc(C)nc(Cl)c1NC1=NCCN1 [MOXONIDINE]	> 20 µM	> 20 µM
CC(=O)CC(c1ccccc1)c1c(O)c2ccccc2oc1=O (centres undefined) [WARFARIN]	> 20 µM	> 20 µM
CC(C)=CCCC(C)C1CCC2(C)C3=C(CCC12C)C1(C)CCC(O)C(C)(C)C1CC3 (centres undefined)	> 20 µM	> 20 µM
Fc1ccc(CN2CCC(Nc3ccc(C(F)(F)F)nn3)CC2)cc1F [JNJ-37822681]	> 20 µM	> 20 µM
CCCN(CCC)C(=O)C1=Cc2ccc(-c3ccc(C(=O)N4CCCC4)cc3)cc2N=C(N)C1 [MOTOLIMOD]	> 20 µM	> 20 µM
[2H]c1c(C([2H])([2H])[2H])nc(N2CC3CN(C(=O)c4c(F)cccc4-n4nccn4)CC3C2)nc1C([2H])([2H])[2H] (centres undefined)	> 20 µM	> 20 µM
COc1nc2ccc(Br)cc2cc1[C@@H](c1ccccc1)[C@@](O)(CCN(C)C)c1cccc2ccccc12 [BEDAQUILINE]	> 20 µM	> 20 µM
CN(C(=O)CO/N=C(/c1ccccc1)c1ccc2c(c1)CN1CC(=O)NC1=N2)C1CCCCC1	> 20 µM	> 20 µM

SMILES	IC50	IC50 (read-out: pIC50 (converted))
Cc1cc(O)cc(C)c1Cl [CHLOROXYLENOL]	> 20 µM	> 20 µM
NC(=O)NO [HYDROXYUREA]	> 20 µM	> 20 µM
C[C@@H]1CC2C3CCC4=CC(=O)C=CC4(C)[C@@]3(Cl)C(Cl)CC2(C)[C@@]1(O)C(=O)CO (some centres undefined)	> 20 µM	> 20 µM
C[C@]12CC[C@H](O)C[C@H]1CC[C@@H]1[C@@H]2CC[C@]2(C)[C@@](O)(c3ccoc3)CC[C@]12O [ROSTAFUROXIN]	> 20 µM	> 20 µM
CNC(=O)c1ccc(Nc2ncc(C(F)(F)F)c(NCc3nccnc3N(C)S(C)(=O)=O)n2)cc1 [DEFACTINIB]	> 20 µM	> 20 µM
CC(=O)c1c(C)c2cnc(Nc3ccc(N4CCNCC4)cn3)nc2n(C2CCCC2)c1=O [PALBOCICLIB]	> 20 µM	> 20 µM
CC1(C)[C@H](C(=O)O)N2C(=O)C[C@H]2S1(=O)=O [SULBACTAM]	> 20 µM	> 20 µM
CCOP(=S)(Oc1cccc2cccnc12)c1ccccc1 (centres undefined) [QUINTIOFOS]	> 20 µM	> 20 µM
CCCCc1cc(OC)c2ccccc2c1OC(C)=O [BUNAPROLAST]	> 20 µM	> 20 µM
C[C@H]1c2nnn(-c3ncc(F)cn3)c2CCN1C(=O)c1cccc(C(F)(F)F)c1Cl	> 20 µM	> 20 µM
O=C(c1cc(Cc2n[nH]c(=O)c3ccccc23)ccc1F)N1CCN(C(=O)C2CC2)CC1 [OLAPARIB]	> 20 µM	> 20 µM
Cc1cc(O)ccc1Cl [CHLOROCRESOL]	> 20 µM	> 20 µM
OC[C@H]1O[C@H](O)[C@@H](O)[C@@H](O)[C@@H]1O	> 20 µM	> 20 µM
O=c1cc(-c2ccccc2)oc2c(O)c(O)ccc12 [7,8-DIHYDROXYFLAVONE]	> 20 µM	> 20 µM
C=CCSCC1Nc2cc(Cl)c(S(N)(=O)=O)cc2S(=O)(=O)N1 (centres undefined) [ALTHIAZIDE]	> 20 µM	> 20 µM
COCCNCc1ccc(-c2cc3nccc(Oc4ccc(NC(=O)C5(C(=O)Nc6ccc(F)cc6)CC5)cc4F)c3s2)nc1 [SITRAVATINIB]	> 20 µM	> 20 µM
NC(N)=Nc1nc(CSCC/C(N)=N/S(N)(=O)=O)cs1 [FAMOTIDINE]	> 20 µM	> 20 µM
CN(C)CCc1ccc(O)cc1 [HORDENINE]	> 20 µM	> 20 µM
COc1ccc2[nH]cc(CCNC(C)=O)c2c1 [MELATONIN]	> 20 µM	> 20 µM
CN1CCN(C(=O)OC2c3nccnc3C(=O)N2c2ccc(Cl)cn2)CC1 (centres undefined) [ZOPICLONE]	> 20 µM	> 20 µM
CCN(CC)CC(=O)OCC(=O)C1(O)CCC2C3CCC4=CC(=O)CCC4(C)C3C(O)CC21C (centres undefined)	> 20 µM	> 20 µM
NS(=O)(=O)c1ccc(C(=O)O)cc1 [CARZENIDE]	> 20 µM	> 20 µM
CN(C)CCOC(c1ccc(Cl)cc1)c1ccccn1 (centres undefined) [CARBINOXAMINE]	> 20 µM	> 20 µM
NC(=O)NC(CCC(=O)O)C(=O)O (centres undefined)	> 20 µM	> 20 µM
CN(C)CCOC(=O)C(c1ccccc1)C1(O)CCCC1 (centres undefined) [CYCLOPENTOLATE]	> 20 µM	> 20 µM
CCN(CC)CCOc1ccc2nc(N(C)C)sc2c1 [DIAMTHAZOLE]	> 20 µM	> 20 µM

SMILES	IC50	IC50 (read-out: pIC50 (converted))
COc1cccc(N(C)C(=S)Oc2ccc3c(c2)CCCC3)n1 [LIRANAFTATE]	> 20 µM	> 20 µM
O=C(NC(CO)C(O)c1ccc([N+](=O)[O-])cc1)C(Cl)Cl (centres undefined)	> 20 µM	> 20 µM
c1cnc(SCc2cccnc2)nc1 [TASULDINE]	> 20 µM	> 20 µM
Cc1ccc2c([nH]c(=O)c3c(=O)cc(C(=O)OCCC(C)C)oc32)c1C	> 20 µM	> 20 µM
CC(C)(CNC(N)=O)NCC(O)COC(=O)c1ccccc1F (centres undefined) [FLESTOLOL]	> 20 µM	> 20 µM
NCCS [CYSTEAMINE]	> 10 µM	> 10 µM
CC[N+](CC)(CC(=O)Nc1c(C)cccc1C)Cc1ccccc1 [DENATONIUM]	> 20 µM	> 20 µM
CCc1ccc(C(=O)COc2ccc(CC3SC(=O)NC3=O)cc2)nc1 (centres undefined) [MITOGLITAZONE]	> 20 µM	> 20 µM
NCC(=O)c1ccccc1	> 20 µM	> 20 µM
CC(=O)N[C@H]1[C@H]([C@H](O)[C@H](O)CO)OC(C(=O)O)=C[C@@H]1NC(=N)N [ZANAMIVIR]	> 20 µM	> 20 µM
C=C(C)C(=O)OCCCCCCCCCCCC	> 20 µM	> 20 µM
CC12C=CC(=O)C=C1CCC1C2CCC2(C)C(O)CCC12 (centres undefined)	> 20 µM	> 20 µM
CC(=O)N(CC(O)CN(C(C)=O)c1c(I)c(C(=O)NCC(O)CO)c(I)c(C(=O)NCC(O)CO)c1I)c1c(I)c(C(=O)NCC(O)CO)c(I)c(C(=O)NCC(O)CO)c1I (centres undefined) [IODIXANOL]	> 20 µM	> 20 µM
Nc1ccc(S(=O)(=O)O)cc1	> 20 µM	> 20 µM
CCC(C)C(C(=O)OC1CCN(C)CC1)c1ccccc1 (centres undefined) [PENTAPIPERIDE]	> 20 µM	> 20 µM
C=CC(=O)N(C)CCOc1c(N)ncnc1-c1cc(F)cc(NC(=O)c2ccc(C3CC3)cc2F)c1C [REMIBRUTINIB]	> 20 µM	> 20 µM
O=C(O)c1ccc(OCCn2ccnc2)cc1 [DAZOXIBEN]	> 20 µM	> 20 µM
CC(c1ccc(Cl)c(Cl)c1)N1N=C(N)CC1=O (centres undefined) [MUZOLIMINE]	> 20 µM	> 20 µM
CN(Cc1cc(Br)cc(Br)c1N)C1CCCCC1 [BROMHEXINE]	> 20 µM	> 20 µM
COc1c(C)c2c(c(O)c1C/C=C(\C)CCC(=O)OCCN1CCOCC1)C(=O)OC2 [MYCOPHENOLATE MOFETIL]	> 20 µM	> 20 µM
CC(C)(C)c1nc(-c2cccc(NS(=O)(=O)c3c(F)cccc3F)c2F)c(-c2ccnc(N)n2)s1 [DABRAFENIB]	> 20 µM	> 20 µM
c1cn2cc(-c3ccc4cn[nH]c4c3)nc(Nc3ccc(N4CCOCC4)cc3)c2n1 [ENTOSPLETINIB]	> 20 µM	> 20 µM
N=C(N)NCCCCNC(=N)N [ARCAINE]	> 20 µM	> 20 µM
CN1CCN(C2=Nc3cc(Cl)ccc3Nc3ccccc32)CC1 [CLOZAPINE]	> 20 µM	> 20 µM
CNC(=O)CCN1CCN(CCC=C2c3ccccc3Sc3ccc(Cl)cc32)CC1	> 20 µM	> 20 µM
